According to patent US20240424112A1, “TETRAHYDROISOQUINOLINE COMPOUNDS THAT ARE KEAP1 BINDERS” (C4X Discovery Limited, priority 2021, published 2024):

Legend:
[1] = biological target: T1, BRD4 short isoform (Homo sapiens, UniProt O60885); experiment: BRD4 degradation assay (Western blot, MDA-MB-468 cells), short isoform; assay type: cell-based; conditions: MDA-MB-468, n = 2
T1 construct: endogenous in cells; host or cells: MDA-MB-468
Protocol: (§1) BRD4 Degradation Assay Protocol Summary
(§2) MDA-MB-468 cells were cultured routinely in DMEM supplemented with 10% heat inactivated FBS and 1% Penicillin-Streptomycin (Thermofisher Scientific) at 37° C. 5% CO2. Cells were seeded in 6-well plates at 4*10^5 cells per well and left to adhere overnight. Example compounds were solubilised in DMSO to make 10 mM stocks followed by serial dilutions in DMSO to 200× final concentration. These were further diluted in culture media to give 20× treatment stocks before addition to cells to a 1× final concentration. Cells were then incubated at 37° C. 5% CO2 for 24 or 48 hours after which cells were lysed in RIPA buffer supplemented with cOmplete Mini Protease Inhibitor Cocktail and PhosSTOP™ (Roche). Lysates were clarified by centrifugation at 13,000 RPM for 10 minutes and the protein concentration of the resulting supernatants determined by BCA assay (ThermoFisher Scientific) as per manufacturer's instructions. Lysates were denatured and reduced in NuPAGE LDS sample buffer and sample reducing agent before 10 μg was loaded onto NuPAGE […] Tris-Acetate Mini Protein Gels (ThermoFisher Scientific). Protein was transferred to nitrocellulose membranes using a Trans-Blot Turbo Transfer System (Bio-Rad) before blocking for 1 hour in Intercept (TBS) Blocking Buffer (Li-Cor). Membranes were then incubated overnight with BRD4 (ab128874; Abcam) and α-tubulin (T6074; Sigma-Aldrich) antibodies diluted 1:2000 and 1:16,000 respectively in Tris-buffered saline 0.05% Tween 20 (TBS-T). The following day, membranes were washed with TBS-T before addition of anti-rabbit IRDye 800 CW and anti-mouse IRDye 680LT secondary antibodies (LiCor) (diluted 1:10,000 in TBS-T) for one hour. Membranes were then washed with TBS-T before imaging using a LICOR Odyssey Infrared Imaging System with Image Studio Ver 5.2 software (LiCor). Densitometry analysis was carried out in the LiCor image studio software where BRD4 signal was normalised to α-tubulin signal. Percentage degradation of BRD4 relative to the DMSO treated negative control was calculated as: =100−(signal of interest/signal of control sample*100). BRD4 degradation by dBET1 was used as positive control for each plate. Data obtained for the percentage degradation of BRD4 upon treatment with the Example compounds 1-6 and Comparative Example compounds 1-3 at 24 hour incubation are shown in Table 2 and with 48 hour incubation are shown in Table 3.

[2] = biological target: T2, BRD4 long isoform (Homo sapiens, UniProt O60885); experiment: BRD4 degradation assay (Western blot, MDA-MB-468 cells), long isoform; assay type: cell-based; conditions: MDA-MB-468, n = 2
T2 construct: endogenous in cells; host or cells: MDA-MB-468
Protocol: as §1, §2

[3] = test system: NRF2 mediated gene NAD(P)H:quinone acceptor oxidoreductase 1 (NQO1) mRNA in BEAS-2B cells; experiment: Beas2B NQO1 mRNA cell based assay; conditions: Homo sapiens, 24 h, vs vehicle (0.1% DMSO), read-out: EC50 (increase in NQO1 mRNA)
Protocol: Beas2B NQO1 mRNA Cell Based Assay
The up-regulation of the NRF2 mediated gene NAD(P)H:quinone acceptor oxidoreductase 1 (NQO1) was measured using the following assay method: BEAS-2B cells (ATCC CRL-9609) were plated in 96-well clear plates at 20,000 cells/well in 75 μL of cell culture media and incubated overnight (37° C., 5% CO2). On day 2, 25 μL of compound or controls were added to the cells for 24 h. On day 3, the medium was aspirated from the plate and the Cells-to-CT™ 1-Step TaqMan® Kit (Ambion A25603) was used to perform expression analysis directly from cultured cells without RNA purification according to the manufacturer's instructions.
Briefly, cells were washed with ice cold PBS and 22.5 μL of room-temperature DNase/Lysis solution was added to the cells and incubated at room temperature for 5 minutes. To stop the reaction, 2.25 μL of stop solution was added to the cell lysate. The samples were diluted 1:5 using nuclease free water and 2.5 μL transferred into the PCR plate. Real-time PCR was performed using the C-1000 Thermal Cycler (Bio-Rad) using human beta actin as the internal control. The cDNA was amplified with a specific primer for NQO1 using the 1-step RT-PCR master mix (Ambion Cells-to-CT™ 1-Step TaqMan® Kit A25603). The primers/probes sets that were used for amplification of cDNA were obtained from TaqMan Gene Expression Assays (Applied Biosystems). The comparative CT (ΔΔCT) relative quantification method was used to calculate the relative mRNA level of the target gene NQO1 as described in the Applied Biosystems Chemistry Guide. The data are expressed as an increase in target gene mRNA compared to vehicle (0.1% DMSO) control and the EC50 values were determined by fitting the data to a four parameter logistic fit using XLfit or XE Runner within ActivityBase.

`Cc1sc2c(c1C)C(c1ccc(Cl)cc1)=N[C@@H](CC(=O)NCC(=O)NCCNC(=O)[C@@]1(C)CCCC[C@H]1C(=O)N1CCc3c(Cl)ccc(OCc4nnn(C)c4C)c3[C@H]1CN1CC3(CC3)CC1=O)c1nnc(C)n1-2` [Comparative Example 1, (1S,2R)-2-((S)-5-Chloro-8-((1,5-dimethyl-1H-1,2,3-triazol-4-yl)methoxy)-1-((6-oxo-5-azaspiro[2.4]heptan-5-yl)methyl)-1,2,3,4-tetrahydroisoquinoline-2-carbonyl)-N-(2-(2-(2-((S)-4-(4-chlorophenyl)-2,3,9-trimethyl-6H-thieno[3,2-f][1,2,4]triazolo[4,3-a][1,4]diazepin-6-yl)acetamido)acetamido)ethyl)-1-methylcyclohexane-1-carboxamide, reference compound] was tested, and the “% Mean Degradation of BRD4” value ([1]; 24 h, 0.1 μM) was 18%, the “% Mean Degradation of BRD4” value ([1]; 24 h, 1 μM) was 42% and the “% Mean Degradation of BRD4” value ([1]; 24 h, 5 μM) was 43%. For the same molecule, the “% Mean Degradation of BRD4” value ([1]; 48 h, 0.1 μM) was −11%, the “% Mean Degradation of BRD4” value ([1]; 48 h, 1 μM) was 24% and the “% Mean Degradation of BRD4” value ([1]; 48 h, 5 μM) was 28%. The “% Mean Degradation of BRD4” value ([2]; 24 h, 0.1 μM) was 11%, the “% Mean Degradation of BRD4” value ([2]; 24 h, 1 μM) was 18% and the “% Mean Degradation of BRD4” value ([2]; 24 h, 5 μM) was 5%. The “% Mean Degradation of BRD4” value ([2]; 48 h, 0.1 μM) was −39%, the “% Mean Degradation of BRD4” value ([2]; 48 h, 1 μM) was −27% and the “% Mean Degradation of BRD4” value ([2]; 48 h, 5 μM) was −47%. For the same molecule, the EC50 [3] was 212 nM.
With `Cc1sc2c(c1C)C(c1ccc(Cl)cc1)=N[C@@H](CC(=O)NCCOCCNC(=O)[C@@]1(C)CCCC[C@H]1C(=O)N1CCc3c(Cl)ccc(OCc4nnn(C)c4C)c3[C@H]1CN1CC3(CC3)CC1=O)c1nnc(C)n1-2` [Comparative Example 2, (1S,2R)-2-((S)-5-chloro-8-((1,5-dimethyl-1H-1,2,3-triazol-4-yl)methoxy)-1-((6-oxo-5-azaspiro[2.4]heptan-5-yl)methyl)-1,2,3,4-tetrahydroisoquinoline-2-carbonyl)-N-(2-(2-(2-((S)-4-(4-chlorophenyl)-2,3,9-trimethyl-6H-thieno[3,2-f][1,2,4]triazolo[4,3-a][1,4]diazepin-6-yl)acetamido)ethoxy)ethyl)-1-methylcyclohexane-1-carboxamide, reference compound] the “% Mean Degradation of BRD4” value ([1]; 24 h, 0.1 μM) was −6%, the “% Mean Degradation of BRD4” value ([1]; 24 h, 1 μM) was 9% and the “% Mean Degradation of BRD4” value ([1]; 24 h, 5 μM) was 26%. For the same molecule, the “% Mean Degradation of BRD4” value ([1]; 48 h, 0.1 μM) was −15%, the “% Mean Degradation of BRD4” value ([1]; 48 h, 1 μM) was 13% and the “% Mean Degradation of BRD4” value ([1]; 48 h, 5 μM) was 20%. The “% Mean Degradation of BRD4” value ([2]; 24 h, 0.1 μM) was −33%, the “% Mean Degradation of BRD4” value ([2]; 24 h, 1 μM) was 3% and the “% Mean Degradation of BRD4” value ([2]; 24 h, 5 μM) was 14%. The “% Mean Degradation of BRD4” value ([2]; 48 h, 0.1 μM) was −26%, the “% Mean Degradation of BRD4” value ([2]; 48 h, 1 μM) was −61% and the “% Mean Degradation of BRD4” value ([2]; 48 h, 5 μM) was −124%. The EC50 [3] was 75 nM.
With `Cc1sc2c(c1C)C(c1ccc(Cl)cc1)=N[C@@H](CC(=O)NCCOCCOCCNC(=O)[C@@]1(C)CCCC[C@H]1C(=O)N1CCc3c(Cl)ccc(OCc4nnn(C)c4C)c3[C@H]1CN1CC3(CC3)CC1=O)c1nnc(C)n1-2` [Comparative Example 3, (1S,2R)-2-((S)-5-Chloro-8-((1,5-dimethyl-1H-1,2,3-triazol-4-yl)methoxy)-1-((6-oxo-5-azaspiro[2.4]heptan-5-yl)methyl)-1,2,3,4-tetrahydroisoguinoline-2-carbonyl)-N-(2-(2-(2-(2-((S)-4-(4-chlorophenyl)-2,3,9-trimethyl-6H-thieno[3,2-f][1,2,4]triazolo[4,3-a][1,4]diazepin-6-yl)acetamido)ethoxy)ethoxy)ethyl)-1-methylcyclohexane-1-carboxamide, reference compound] the “% Mean Degradation of BRD4” value ([1]; 24 h, 0.1 μM) was 5%, the “% Mean Degradation of BRD4” value ([1]; 24 h, 1 μM) was 31% and the “% Mean Degradation of BRD4” value ([1]; 24 h, 5 μM) was 18%. The “% Mean Degradation of BRD4” value ([1]; 48 h, 0.1 μM) was 23%, the “% Mean Degradation of BRD4” value ([1]; 48 h, 1 μM) was 32% and the “% Mean Degradation of BRD4” value ([1]; 48 h, 5 μM) was −4%. For the same molecule, the “% Mean Degradation of BRD4” value ([2]; 24 h, 0.1 μM) was 34%, the “% Mean Degradation of BRD4” value ([2]; 24 h, 1 μM) was 45% and the “% Mean Degradation of BRD4” value ([2]; 24 h, 5 μM) was 49%. The “% Mean Degradation of BRD4” value ([2]; 48 h, 0.1 μM) was 13%, the “% Mean Degradation of BRD4” value ([2]; 48 h, 1 μM) was 30% and the “% Mean Degradation of BRD4” value ([2]; 48 h, 5 μM) was 20%. It also gave an EC50 [3] of 68 nM.
